Among the data in DBAASP are MIC values, retold here.

Values after ≈ are worked out from the molar mass of the structure shown. Values joined by “and” are separate entries in the source; they are usually repeats but may differ in a detail not shown here. Equal values may be shown once.

Test systems include Candida albicans; Pseudomonas aeruginosa; Staphylococcus aureus; Escherichia coli; Acinetobacter baumannii; Escherichia coli K99; Escherichia coli K88; Klebsiella pneumoniae; Escherichia coli UB1005; Streptococcus pneumoniae; Escherichia coli 1005; Candida albicans MDM8; Aspergillus flavus; Aspergillus niger A296.
Holding throughout (experiment): ≥ marks a high value that may be exact or a test limit, other limits are often not marked, values filed in µg/mL are converted to µM
Experiment [1] concerns Mycobacterium tuberculosis CAS3.
For experiment [2], the system named is Mycobacterium tuberculosis H37Rv.
Experiment [3] relates to Mycobacterium tuberculosis WXY.
For experiment [4], the system named is Escherichia coli ATCC 25922.
Experiment [5] deals with Staphylococcus aureus ATCC 29213.
Experiment [6] deals with Candida albicans ATCC 90029.
Experiment [7] deals with Pseudomonas aeruginosa PAO1.
Experiment [8] relates to Salmonella enterica subsp. enterica serovar Typhimurium ATCC 14028.
Experiment [9] deals with Pseudomonas aeruginosa CICC 21630.
Experiment [10] has as its system Salmonella enterica subsp. enterica serovar Typhimurium C77-31.
Experiment [11] relates to Pseudomonas aeruginosa ATCC 27853.
The test system of experiment [12] is Salmonella enterica subsp. enterica serovar Pullorum C79-13.
Experiment [13] has as its system Pseudomonas aeruginosa CICC 21625.
The test system of experiment [14] is Staphylococcus pseudintermedius.
Experiment [15] has as its system Salmonella enterica subsp. enterica serovar Pullorum ATCC 7913.
Experiment [16] deals with Candida tropicalis CGMCC 2.1975.
Experiment [17] deals with Staphylococcus aureus ATCC 25923.
The subject of experiment [18] is Candida parapsilosis CGMCC 2.3989.
The test system of experiment [19] is Staphylococcus epidermidis ATCC 12228.
Experiment [20] has as its system Candida krusei CGMCC 2.1857.
Experiment [21] deals with Staphylococcus aureus ATCC 43300.
In experiment [22] the test system is Salmonella typhimurium CMCC 50013.
Experiment [23] has as its system Bacillus subtilis KCTC 3068.
Experiment [24] concerns Candida parapsilosis IOC 4564.
In experiment [25] the test system is Cryptococcus neoformans var. grubii H99.
Experiment [26] has as its system Aspergillus fumigatus NCPF 2109.
Experiment [27] has as its system Saccharomyces cerevisiae ATCC 2601.
Experiment [28] deals with Candida tropicalis IOC 4560.

Take `CC(C)C[C@H](NC(=O)[C@H](C)NC(=O)[C@H](C)NC(=O)[C@H](CCCN=C(N)N)NC(=O)[C@H](CO)NC(=O)[C@H](CC(C)C)NC(=O)[C@H](CCCCN)NC(=O)[C@H](CCCCN)NC(=O)[C@H](CCCCN)NC(=O)[C@H](C)N)C(=O)N[C@@H](CCCN=C(N)N)C(=O)N[C@@H](C)C(=O)N[C@@H](C)C(=O)N[C@H](C(=O)N[C@@H](CCCCN)C(=O)O)C(C)C` [AKKKLSRAALRAAVK]: the MIC in experiment [1], in experiment [2] and in [3] was no less than 93.1 µM in each case.
For `CC(C)C[C@H](NC(=O)[C@H](Cc1cnc[nH]1)NC(=O)[C@H](CO)NC(=O)[C@H](C)NC(=O)[C@H](CC(C)C)NC(=O)[C@@H](NC(=O)[C@@H](NC(=O)[C@H](CC(C)C)NC(=O)[C@H](CC(C)C)NC(=O)[C@H](CO)NC(=O)[C@H](Cc1cnc[nH]1)NC(=O)[C@H](CO)NC(=O)[C@H](CC(C)C)NC(=O)[C@H](CC(C)C)NC(=O)[C@H](CCCCN)NC(=O)[C@H](Cc1ccccc1)NC(=O)[C@H](CCCN=C(N)N)NC(=O)[C@@H](N)CCCN=C(N)N)C(C)C)[C@@H](C)O)C(=O)O` [RRFKLLSHSLLVTLASHL], the minimum inhibitory concentration (MIC) came to 2.99 µM (≈ 6.25 µg/mL) against Candida albicans; 1.49 µM (≈ 3.12 µg/mL) in experiment [4]; 2.99 µM (≈ 6.25 µg/mL) in experiment [5]; 5.98 µM (≈ 12.5 µg/mL) in [6]; 2.99 µM (≈ 6.25 µg/mL) against Pseudomonas aeruginosa; 1.49 µM (≈ 3.12 µg/mL) in the experiment on Staphylococcus aureus. Besides, the MIC with Escherichia coli was 1.49 µM (≈ 3.12 µg/mL).
Regarding `CC(C)[C@H](N)C(=O)N[C@@H](CCCCN)C(=O)N1CCC[C@H]1C(=O)N[C@H](C(=O)N[C@H](C(=O)N[C@@H](CCCCN)C(=O)N1CCC[C@H]1C(=O)N[C@H](C(=O)N[C@H](C(=O)N[C@@H](CCCCN)C(=O)N1CCC[C@H]1C(=O)N[C@H](C(=O)N[C@H](C(=O)N[C@@H](CCCCN)C(=O)N1CCC[C@H]1C(=O)N[C@H](C(=O)N[C@H](C(=O)N[C@@H](CCCCN)C(=O)N1CCC[C@H]1C(=O)N[C@H](C(=O)N[C@H](C(=O)N[C@@H](CCCCN)C(=O)N1CCC[C@H]1C(=O)N[C@H](C(=O)N[C@H](C(=O)N[C@@H](CCCCN)C(=O)N1CCC[C@H]1C(=O)N[C@H](C(N)=O)C(C)C)C(C)C)C(C)C)C(C)C)C(C)C)C(C)C)C(C)C)C(C)C)C(C)C)C(C)C)C(C)C)C(C)C)C(C)C` [VKPVVKPVVKPVVKPVVKPVVKPVVKPV], the MIC against Acinetobacter baumannii was no less than 64 µM; in [7] it was greater than 64 µM; in experiment [8], greater than 64 µM; in experiment [9], no less than 64 µM; in [4], greater than 64 µM; against Escherichia coli K99, no less than 64 µM. For the same compound, the MIC in experiment [10] was no less than 64 µM; against Escherichia coli K88, no less than 64 µM; in experiment [11], greater than 64 µM; in experiment [12], no less than 64 µM; in experiment [13] it was no less than 64 µM; in the experiment on Pseudomonas aeruginosa, greater than 64 µM. Moreover, the values for the MIC against Klebsiella pneumoniae, against Escherichia coli UB1005 and in the experiment on Escherichia coli were greater than 64 µM, no less than 64 µM and greater than 64 µM, respectively.
As for `CC[C@H](C)[C@H](NC(=O)[C@@H]1CCCN1C(C)=O)C(=O)N[C@@H](Cc1cnc[nH]1)C(=O)N[C@@H](CCCN=C(N)N)C(=O)N[C@@H](CCCN=C(N)N)C(=O)N[C@H](C(=O)N1CCC[C@H]1C(=O)N1CCC[C@H]1C(=O)N[C@@H](CCCN=C(N)N)C(=O)N[C@@H](Cc1c[nH]c2ccccc12)C(=O)N1CCC[C@H]1C(=O)N[C@@H](CCCN=C(N)N)C(=O)N[C@@H](CC(C)C)C(=O)N[C@@H](CCCCN)C(=O)N[C@@H](CCCN=C(N)N)C(=O)N[C@@H](CCCN=C(N)N)C(=O)N[C@@H](Cc1c[nH]c2ccccc12)C(N)=O)[C@@H](C)CC` [PIHRRIPPRWPRLKRRW], the MIC in [14] amounted to 27.6 µM (≈ 65.1 µg/mL); in [5], 27.6 µM (≈ 65.1 µg/mL); in experiment [11] it was 27.6 µM (≈ 65.1 µg/mL); against Pseudomonas aeruginosa it was 55.2 µM (≈ 130 µg/mL).
On to `NC(=O)[C@H](CCCN=C(N)N)NC(=O)[C@H](Cc1c[nH]c2ccccc12)NC(=O)[C@H](CCCN=C(N)N)NC(=O)[C@H](Cc1c[nH]c2ccccc12)NC(=O)[C@H](Cc1c[nH]c2ccccc12)NC(=O)[C@H](Cc1c[nH]c2ccccc12)NC(=O)[C@H](CCCN=C(N)N)NC(=O)[C@H](Cc1c[nH]c2ccccc12)NC(=O)[C@@H](N)CCCN=C(N)N` [RWRWWWRWR], for which the MIC against Streptococcus pneumoniae was no less than 32 µM; in [7], 16 µM (≈ 25.2 µg/mL); in [15], 2 µM (≈ 3.15 µg/mL); against Candida albicans, 2.83 µM (≈ 4.45 µg/mL); with Escherichia coli 1005, 2 µM (≈ 3.15 µg/mL); in experiment [8], 4 µM (≈ 6.29 µg/mL). For the same compound, the MIC in experiment [4] was 4 µM and > 2 µM; in experiment [16], 2 µM (≈ 3.15 µg/mL); in experiment [5], 4 µM (≈ 6.29 µg/mL); in experiment [17] it was 4 µM (≈ 6.29 µg/mL); in experiment [18] it was 16 µM (≈ 25.2 µg/mL); in [19], 4 µM (≈ 6.29 µg/mL). Further, the MIC against Pseudomonas aeruginosa worked out at 16 µM (≈ 25.2 µg/mL); against Staphylococcus aureus it was 8 µM (≈ 12.6 µg/mL); in [20], 4 µM (≈ 6.29 µg/mL); against Klebsiella pneumoniae, 32 µM (≈ 50.3 µg/mL); in experiment [21], 2 µM (≈ 3.15 µg/mL); in the experiment on Escherichia coli, 8 µM (≈ 12.6 µg/mL).
In the case of `CC[C@H](C)[C@H](NC(=O)[C@@H](N)CO)C(=O)N[C@@H](CO)C(=O)N[C@@H](CC(C)C)C(=O)N[C@@H](CC(C)C)C(=O)O` [SISLL], the MIC in experiment [22] is no less than 186 µM; in experiment [4], 172 µM (≈ 91.4 µg/mL); in [5] it was 158 µM (≈ 83.9 µg/mL); in experiment [23], no less than 133 µM.
Regarding `CC(C)C[C@H](NC(=O)[C@H](CC(C)C)NC(=O)[C@H](CCCCN)NC(=O)[C@@H](N)Cc1ccccc1)C(=O)N[C@@H](CO)C(=O)N[C@@H](Cc1cnc[nH]1)C(=O)N[C@@H](CO)C(=O)N[C@@H](CC(C)C)C(=O)N[C@@H](CC(C)C)C(=O)N[C@H](C(=O)N[C@H](C(=O)N[C@@H](CC(C)C)C(=O)N[C@@H](C)C(=O)N[C@@H](CO)C(=O)N[C@@H](Cc1cnc[nH]1)C(=O)N[C@@H](CC(C)C)C(=O)N1CCC[C@H]1C(=O)O)[C@@H](C)O)C(C)C` [FKLLSHSLLVTLASHLP], the MIC was 12.5 µM (≈ 23.5 µg/mL) in [24]; 1.6 µM (≈ 3 µg/mL) in experiment [25]; 2.1 µM (≈ 3.94 µg/mL) in the experiment with Candida albicans MDM8; no less than 50 µM in the experiment on Aspergillus flavus; 6.3 µM (≈ 11.8 µg/mL) in [26]; 3.1 µM (≈ 5.82 µg/mL) in [27]. Also, the minimum inhibitory concentration (MIC) against Aspergillus niger A296 is 12.5 µM (≈ 23.5 µg/mL); in experiment [28], 2.1 µM (≈ 3.94 µg/mL).

One may read the MIC as the smallest concentration in the dilution series that meets the test's criterion for growth inhibition. Read a low MIC as greater potency.
